The values below come from ChEMBL document CHEMBL2434912, “Microwave accelerated synthesis of isoxazole hydrazide inhibitors of the system xc- transporter: Initial homology model” (Bioorg Med Chem Lett, 2013).

For this test, the target named is T1, Cystine/glutamate transporter (Homo sapiens) (UniProt Q9UPY5).
T1 sequence (whole entry): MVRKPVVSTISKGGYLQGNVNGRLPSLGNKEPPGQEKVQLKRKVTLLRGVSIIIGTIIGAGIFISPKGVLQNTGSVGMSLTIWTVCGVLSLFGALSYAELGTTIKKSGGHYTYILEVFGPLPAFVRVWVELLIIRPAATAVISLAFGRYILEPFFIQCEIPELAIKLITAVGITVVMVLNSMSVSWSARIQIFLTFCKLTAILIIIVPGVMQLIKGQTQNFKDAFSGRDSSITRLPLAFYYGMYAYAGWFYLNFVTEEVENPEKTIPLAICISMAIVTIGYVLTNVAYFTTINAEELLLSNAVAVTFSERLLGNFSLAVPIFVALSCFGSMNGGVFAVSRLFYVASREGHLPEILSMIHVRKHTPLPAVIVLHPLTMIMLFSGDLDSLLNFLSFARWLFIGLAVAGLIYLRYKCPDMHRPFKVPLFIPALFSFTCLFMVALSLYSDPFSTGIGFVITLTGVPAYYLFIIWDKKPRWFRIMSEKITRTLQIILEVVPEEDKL
Briefly: Inhibition of system xc-transporter-mediated [3H]-L-glutamate uptake in human SNB19 cells at 500 uM after 5 mins by liquid scintillation counting analysis relative to control. The settings on record: SNB-19. It counts as cell-based.
With `COc1ccc(C(=O)N/N=C(\C)c2c(C(=O)O)noc2C)cc1`, the inhibition (in general, the drop in the measured response relative to a control, in per cent) came to 68%. To `C/C(=N\NC(=O)c1ccc(F)cc1F)c1c(C(=O)O)noc1C` belongs 58%; to `C/C(=N\NC(=O)c1ccccc1)c1c(C(=O)O)noc1C`, 83%; to `C/C(=N\NC(=O)c1cccc2ccccc12)c1c(C(=O)O)noc1C`, 68%. To `C/C(=N\NC(=O)c1ccccc1O)c1c(C(=O)O)noc1C` belongs 52%; to `C/C(=N\NC(=O)c1cc(C(F)(F)F)cc(C(F)(F)F)c1)c1c(C(=O)O)noc1C`, 90%.
